From patent US6660298B1, “Paroxetine tablets and capsules” (priority 2000, dated 2003)
Counter-ions that a name gives are not always drawn.

Experiments:
Assay type in all cases: physicochemical
[1] = Solubilization enhancement with PVP K-30 and citric acid (Preparation C)
Experimental: Approximately 1.0, 1.5, 1.6, 2.5 and 3.0 grams of amorphous paroxetine HCl were weighed into five 25-ml volumetric flasks. Ten milliliters of an ethanol-water (20% v/v ethanol) mixture containing 0.25 grams of polyvinyl pyrrolidone (PVP) K-30 and 0.02 grams of citric acid anhydrous were added into each of the five flasks and the flasks were sonicated for 30 minutes. Only the solution in flask 1 became clear while only part of the paroxetine HCl in flasks 2 through 5 dissolved.

[2] = Determination of solubility in deionized water (Preparation A); conditions: room temperature, sonicated 10 min, still clear after 24 hours
Experimental: Approximately 45, 100, 200, 300, 400, 500, 510, 750 and 1000 mg of amorphous paroxetine HCl were weighed into nine 25-ml volumetric flasks labeled 1 through 9 respectively. Ten milliliters of deionized water were pipetted into each of the flasks and the flasks were stoppered. The flasks were then placed in a sonicator (Branson 1210, Danbury, Conn.) and sonicated for ten minutes taking care to see that there was no heating.

[3] = Solubility in aqueous alcohol (Preparation B)
Experimental: A. Exactly two milliliters of ethanol were added to each of the nine flasks from Preparation A and the flasks shaken gently by hand. […] B. Approximately 250, 320, 400, 570 and 1120 mg of amorphous paroxetine HCl were weighed into five 25-ml volumetric flasks labeled 1 through 5 respectively. Ten milliliters of ethanol-water mixture containing 20% v/v ethanol were pipetted into each of the flasks and the flasks were stoppered. The flasks were then placed in a sonicator (Branson 1210, Danbury, Conn.) and sonicated for ten minutes taking care to see that there was no heating.

Compound | solubility at 30 min ([1]; 60 °C, aqueous with cosolvent or surfactant or cyclodextrin, thermodynamic from solid) [mg/mL] | maximum solubility ([2]; HCl) | maximum solubility ([2]; listed as amorphous form of paroxetine HCl) | appearance of solution upon heating ([1]; 1.0-3.0 g in 10 ml 20% v/v ethanol with 0.25 g PVP K-30 and 0.02 g citric acid, heated to about 60° C.) | appearance of solution ([1]; 1.0 g in 10 ml 20% v/v ethanol with 0.25 g PVP K-30 and 0.02 g citric acid, sonicated 30 min (flask 1)) | extent of dissolution ([1]; 1.5, 1.6, 2.5, 3.0 g in 10 ml 20% v/v ethanol with 0.25 g PVP K-30 and 0.02 g citric acid, sonicated 30 min (flasks 2-5)) | appearance of solution ([3]; 1120 mg in 10 ml ethanol-water 20% v/v ethanol, sonicated 10 min (flask 5)) | appearance of solution ([3]; 250, 320, 400, 570 mg in 10 ml ethanol-water 20% v/v ethanol, sonicated 10 min (flasks 1-4)) | amount that could be dissolved in hydroalcoholic solvent mixture ([3]; about 15% ethanol (10 ml water + 2 ml ethanol))
Fc1ccc([C@@H]2CCNC[C@H]2COc2ccc3c(c2)OCO3)cc1 [Paroxetine HCl] | > 300 |  |  |  |  |  |  |  | 
Cl.Fc1ccc([C@@H]2CCNC[C@H]2COc2ccc3c(c2)OCO3)cc1 [amorphous paroxetine HCl] |  | about 75 mg/ml | up to 75 mg/ml | all the solutions became clear | became clear | only part | clear solution with a slight precipitate | clear solutions | at least 1 gram
